In the supplement of paper PMC10307832:

What was measured:
Test in all cases: relative viability (nuclei count vs DMSO), 5 days (fraction); higher = more cells survive
LCLC-103H = test system: LCLC-103H
Procedure, shortened: (§1)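 Lung cancer cell lines in 1536-well plates were dosed by pin tool the day after seeding, either with one drug alone or with a fixed anchor-drug dose plus five library-drug doses (not always all listed) in √10 steps. After 5 days, cells were fixed and their nuclei stained in one step (final 0.05% Triton X-100, 1% formaldehyde, 1 ug/ml Hoechst), then counted on 4× images. Relative viability is the nuclei count in treated wells divided by that in vehicle wells. Values are medians of duplicate plates.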

COR-L 105 = test system: COR-L 105
Procedure, shortened: as §1

NCI-H522 = test system: NCI-H522
Procedure, shortened: as §1

NCI-H1915 = test system: NCI-H1915
Procedure, shortened: as §1

H3255 = test system: H3255
Procedure, shortened: as §1

NCI-H2087 = test system: NCI-H2087
Procedure, shortened: as §1

NCI-H520 = test system: NCI-H520
Procedure, shortened: as §1

NCI-H2170 = test system: NCI-H2170
Procedure, shortened: as §1

A-427 = test system: A-427
Procedure, shortened: as §1

SK-MES-1 = test system: SK-MES-1
Procedure, shortened: as §1

SW 1573 = test system: SW 1573
Procedure, shortened: as §1

HCC-827 = test system: HCC-827
Procedure, shortened: as §1

NCI-H2023 = test system: NCI-H2023
Procedure, shortened: as §1

NCI-H1793 = test system: NCI-H1793
Procedure, shortened: as §1

NCI-H358 = test system: NCI-H358
Procedure, shortened: as §1

NCI-H1993 = test system: NCI-H1993
Procedure, shortened: as §1

NCI-H1975 = test system: NCI-H1975
Procedure, shortened: as §1

NCI-H1792 = test system: NCI-H1792
Procedure, shortened: as §1

NCI-H1944 = test system: NCI-H1944
Procedure, shortened: as §1

LOU-NH91 = test system: LOU-NH91
Procedure, shortened: as §1

HCC-44 = test system: HCC-44
Procedure, shortened: as §1

LXF-289 = test system: LXF-289
Procedure, shortened: as §1

SW 900 = test system: SW 900
Procedure, shortened: as §1

## CCNC(=O)c1noc(-c2cc(C(C)C)c(O)cc2O)c1-c1ccc(CN2CCOCC2)cc1 [Luminespib] + COc1cccc2cc(-c3nc([C@H]4CC[C@H](C(=O)O)CC4)n4ncnc(N)c34)[nH]c12 [OSI-027] (partner 0.5 µM)
LCLC-103H; first compound 0.002 µM
  relative viability: 0.457
LCLC-103H; first compound 0.006325 µM
  relative viability: 0.471
LCLC-103H; first compound 0.02 µM
  relative viability: 0.35
LCLC-103H; first compound 0.06325 µM
  relative viability: 0.503
LCLC-103H; first compound 0.2 µM
  relative viability: 0.383
COR-L 105; first compound 0.002 µM
  relative viability: 0.775
COR-L 105; first compound 0.006325 µM
  relative viability: 0.619
COR-L 105; first compound 0.02 µM
  relative viability: 0.331
COR-L 105; first compound 0.06325 µM
  relative viability: 0.162
COR-L 105; first compound 0.2 µM
  relative viability: 0.176
NCI-H522; first compound 0.002 µM
  relative viability: 0.687
NCI-H522; first compound 0.006325 µM
  relative viability: 0.732
NCI-H522; first compound 0.02 µM
  relative viability: 0.615
NCI-H522; first compound 0.06325 µM
  relative viability: 0.538
NCI-H522; first compound 0.2 µM
  relative viability: 0.587
NCI-H1915; first compound 0.002 µM
  relative viability: 0.596
NCI-H1915; first compound 0.006325 µM
  relative viability: 0.502
NCI-H1915; first compound 0.02 µM
  relative viability: 0.517
NCI-H1915; first compound 0.06325 µM
  relative viability: 0.243
NCI-H1915; first compound 0.2 µM
  relative viability: 0.0689
H3255; first compound 0.002 µM
  relative viability: 0.596
H3255; first compound 0.006325 µM
  relative viability: 0.628
H3255; first compound 0.06325 µM
  relative viability: 0.577
H3255; first compound 0.2 µM
  relative viability: 0.249
NCI-H2087; first compound 0.002 µM
  relative viability: 0.553
NCI-H2087; first compound 0.006325 µM
  relative viability: 0.454
NCI-H2087; first compound 0.02 µM
  relative viability: 0.157
NCI-H2087; first compound 0.06325 µM
  relative viability: 0.125
NCI-H2087; first compound 0.2 µM
  relative viability: 0.0972
NCI-H520; first compound 0.002 µM
  relative viability: 0.247
NCI-H520; first compound 0.006325 µM
  relative viability: 0.27
NCI-H520; first compound 0.02 µM
  relative viability: 0.231
NCI-H520; first compound 0.06325 µM
  relative viability: 0.159
NCI-H520; first compound 0.2 µM
  relative viability: 0.158
NCI-H2170; first compound 0.002 µM
  relative viability: 0.739
NCI-H2170; first compound 0.006325 µM
  relative viability: 0.698
NCI-H2170; first compound 0.02 µM
  relative viability: 0.488
NCI-H2170; first compound 0.06325 µM
  relative viability: 0.23
NCI-H2170; first compound 0.2 µM
  relative viability: 0.173
A-427; first compound 0.002 µM
  relative viability: 0.462
A-427; first compound 0.006325 µM
  relative viability: 0.396
A-427; first compound 0.02 µM
  relative viability: 0.366
A-427; first compound 0.06325 µM
  relative viability: 0.158
A-427; first compound 0.2 µM
  relative viability: 0.121
SK-MES-1; first compound 0.002 µM
  relative viability: 0.609
SK-MES-1; first compound 0.006325 µM
  relative viability: 0.486
SK-MES-1; first compound 0.02 µM
  relative viability: 0.2
SK-MES-1; first compound 0.06325 µM
  relative viability: 0.11
SK-MES-1; first compound 0.2 µM
  relative viability: 0.131
SW 1573; first compound 0.002 µM
  relative viability: 0.633
SW 1573; first compound 0.006325 µM
  relative viability: 0.549
SW 1573; first compound 0.02 µM
  relative viability: 0.199
SW 1573; first compound 0.06325 µM
  relative viability: 0.0962
SW 1573; first compound 0.2 µM
  relative viability: 0.09
HCC-827; first compound 0.002 µM
  relative viability: 0.795
HCC-827; first compound 0.006325 µM
  relative viability: 0.725
HCC-827; first compound 0.02 µM
  relative viability: 0.543
HCC-827; first compound 0.06325 µM
  relative viability: 0.354
HCC-827; first compound 0.2 µM
  relative viability: 0.126
NCI-H2023; first compound 0.002 µM
  relative viability: 0.44
NCI-H2023; first compound 0.006325 µM
  relative viability: 0.374
NCI-H2023; first compound 0.02 µM
  relative viability: 0.131
NCI-H2023; first compound 0.06325 µM
  relative viability: 0.0545
NCI-H2023; first compound 0.2 µM
  relative viability: 0.0624
NCI-H1793; first compound 0.002 µM
  relative viability: 0.257
NCI-H1793; first compound 0.006325 µM
  relative viability: 0.246
NCI-H1793; first compound 0.02 µM
  relative viability: 0.199
NCI-H1793; first compound 0.06325 µM
  relative viability: 0.125
NCI-H1793; first compound 0.2 µM
  relative viability: 0.112
NCI-H358; first compound 0.002 µM
  relative viability: 0.9
NCI-H358; first compound 0.006325 µM
  relative viability: 0.747
NCI-H358; first compound 0.02 µM
  relative viability: 0.362
NCI-H358; first compound 0.06325 µM
  relative viability: 0.0472
NCI-H358; first compound 0.2 µM
  relative viability: 0.0538
NCI-H1993; first compound 0.002 µM
  relative viability: 0.598
NCI-H1993; first compound 0.006325 µM
  relative viability: 0.545
NCI-H1993; first compound 0.02 µM
  relative viability: 0.562
NCI-H1993; first compound 0.06325 µM
  relative viability: 0.457
NCI-H1993; first compound 0.2 µM
  relative viability: 0.389
NCI-H1975; first compound 0.002 µM
  relative viability: 0.746
NCI-H1975; first compound 0.006325 µM
  relative viability: 0.677
NCI-H1975; first compound 0.02 µM
  relative viability: 0.187
NCI-H1975; first compound 0.06325 µM
  relative viability: 0.0795
NCI-H1975; first compound 0.2 µM
  relative viability: 0.0958
NCI-H1792; first compound 0.002 µM
  relative viability: 0.637
NCI-H1792; first compound 0.006325 µM
  relative viability: 0.618
NCI-H1792; first compound 0.02 µM
  relative viability: 0.509
NCI-H1792; first compound 0.06325 µM
  relative viability: 0.26
NCI-H1792; first compound 0.2 µM
  relative viability: 0.229
NCI-H1944; first compound 0.002 µM
  relative viability: 0.422
NCI-H1944; first compound 0.006325 µM
  relative viability: 0.359
NCI-H1944; first compound 0.02 µM
  relative viability: 0.365
NCI-H1944; first compound 0.06325 µM
  relative viability: 0.215
NCI-H1944; first compound 0.2 µM
  relative viability: 0.152
LOU-NH91; first compound 0.002 µM
  relative viability: 0.684
LOU-NH91; first compound 0.006325 µM
  relative viability: 0.74
LOU-NH91; first compound 0.02 µM
  relative viability: 0.492
LOU-NH91; first compound 0.06325 µM
  relative viability: 0.319
LOU-NH91; first compound 0.2 µM
  relative viability: 0.295
HCC-44; first compound 0.002 µM
  relative viability: 0.484
HCC-44; first compound 0.006325 µM
  relative viability: 0.554
HCC-44; first compound 0.02 µM
  relative viability: 0.483
HCC-44; first compound 0.06325 µM
  relative viability: 0.135
HCC-44; first compound 0.2 µM
  relative viability: 0.139
LXF-289; first compound 0.002 µM
  relative viability: 0.751
LXF-289; first compound 0.006325 µM
  relative viability: 0.762
LXF-289; first compound 0.02 µM
  relative viability: 0.759
LXF-289; first compound 0.06325 µM
  relative viability: 0.163
LXF-289; first compound 0.2 µM
  relative viability: 0.0755
SW 900; first compound 0.002 µM
  relative viability: 0.502
SW 900; first compound 0.006325 µM
  relative viability: 0.471
SW 900; first compound 0.02 µM
  relative viability: 0.131
SW 900; first compound 0.06325 µM
  relative viability: 0.0999
SW 900; first compound 0.2 µM
  relative viability: 0.0789
